Drawing on PubChem BioAssay (NCI), this text covers TGI for eight compounds.

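Where inhibition never reached the appropriate level, the endpoint shown equals the highest concentration tested. Otherwise, values were interpolated linearly from a five-concentration, 48-hour dose response in 96-well plates. TGI: total growth inhibition.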

What all share (experiment): NCI anticancer screen, dose series, 48 h
Experiment [1] deals with BT-549 breast.
The test system of experiment [2] is CAKI-1 renal.
The subject of experiment [3] is EKVX NSCLC.
Experiment [4] concerns HCC-2998 colon.
Experiment [5] deals with HOP-92 NSCLC.
In experiment [6] the test system is IGROV1 ovarian.
Experiment [7] has as its system M14 melanoma.
In experiment [8] the test system is MDA-MB-435.
Experiment [9] concerns MOLT-4 leukemia.
Experiment [10] has as its system NCI-H23 lung.
In experiment [11] the test system is OVCAR-5 ovarian.
Experiment [12] has as its system OVCAR-8 ovarian.
In experiment [13] the test system is SF-539 CNS.
Experiment [14] relates to SK-MEL-28 melanoma.
For experiment [15], the system named is SK-OV-3 ovarian.
Experiment [16] concerns SNB-75 CNS.
For experiment [17], the system named is TK-10 renal.
For experiment [18], the system named is UACC-62 melanoma.
For experiment [19], the system named is A498 renal.

As for `COc1ccc(N[C@H](CS(=O)c2ccc(C)cc2)C(F)(F)F)cc1` (stereo partly specified), the TGI in experiment [1], in experiment [2], in experiment [3], in experiment [4], in experiment [5] and in experiment [6] was over 100 µM in each case. Besides, the TGI in [7], in experiment [8], in experiment [9], in experiment [10], in experiment [11] and in [12] was over 100 µM each time. The TGI in [13], in [14], in experiment [15], in [16], in experiment [17] and in experiment [18] was over 100 µM in each case.
With `CC(C)(C)OC(=O)NCC(c1c[nH]c2cc(Br)ccc12)c1c[nH]c2cc(Br)ccc12`, the TGI in [1] was found to be 30.3 µM; in experiment [2] it was 91.5 µM; in experiment [3] it was 32.8 µM; in [4], 38.4 µM; in experiment [5], 28.6 µM; in [6] it was 29.4 µM. The TGI in [7] is 37.3 µM; in [8], 31.9 µM; in experiment [9] it was over 100 µM; in experiment [10] it was 34.2 µM; in experiment [11] it was 31.4 µM; in experiment [12], 36.5 µM. Besides, the TGI in [13] was 38 µM; in experiment [14], 83.4 µM; in experiment [15], 29.5 µM; in experiment [16] it was 49.6 µM; in [17], 35.9 µM; in experiment [18] it was 30.1 µM.
For the compound `O=C(O)CN1CCN2CCCCCCCCN(CC1)CCN(CC(=O)O)CC2`, the TGI in experiment [19], in [1], in experiment [2], in experiment [3], in experiment [5] and in [6] was over 100 µM in each case. Moreover, the TGI in experiment [7], in experiment [8], in experiment [9], in experiment [11], in experiment [12] and in experiment [13] was over 100 µM in each case. The TGI in [14], in experiment [15], in experiment [16], in experiment [17] and in [18] was over 100 µM throughout.
As for `Cc1ccc2c(ccc3ncc(CNc4ccc(NS(C)(=O)=O)cc4)c32)[nH]1`, the TGI in [19] was 33.8 µM; in [1] it was over 100 µM; in experiment [2], 58 µM; in experiment [3], over 100 µM; in [5] it was 90.3 µM; in [6], over 100 µM. In addition, the TGI was 33.1 µM in [7]; 31.5 µM in [8]; 44.7 µM in [9]; 58.7 µM in [10]; 53.8 µM in experiment [11]; 81.1 µM in experiment [12]. For the same compound, the TGI in [13] is 50.5 µM; in experiment [14] it was 53.7 µM; in experiment [15], 84.2 µM; in experiment [16], 34 µM; in experiment [17], over 100 µM; in [18] it was 34.2 µM.
Consider `CC(C)CC(C#CCCOC(=O)c1ccccc1)OC(=O)c1ccccc1` (stereo unspecified), for which the TGI in experiment [19], in [1], in experiment [3], in experiment [4], in [5] and in experiment [6] was over 10 µM each time. In addition, the TGI in experiment [7], in experiment [8], in [9], in experiment [10], in experiment [11] and in experiment [12] was over 10 µM throughout. For the same compound, the TGI in experiment [13], in [14], in experiment [15], in experiment [16], in [17] and in [18] was over 10 µM each time.
As to `CCCNC(=O)Cn1c2c(c3ccccc31)CCCC2`, the TGI in [19], in [1], in experiment [2], in [3], in experiment [4] and in experiment [5] was over 100 µM each time. The TGI in [6], in [7], in experiment [8], in experiment [9], in experiment [10] and in experiment [11] was over 100 µM each time. Moreover, the TGI in experiment [12], in experiment [13], in [14], in experiment [15], in experiment [17] and in experiment [18] was over 100 µM in each case.
`COc1ccc(/C(=N/OCCCC(=O)O)c2cccs2)cc1`: the TGI in [19], in experiment [1], in experiment [2], in experiment [3], in experiment [4] and in experiment [5] was over 100 µM in each case. The TGI in experiment [8], in experiment [9], in experiment [10], in experiment [11], in experiment [12] and in [13] was over 100 µM throughout. Moreover, the TGI in [15], in experiment [16], in experiment [17] and in [18] was over 100 µM in each case.
On to `COC(=O)Cc1cccc2c(=O)c(S(=O)(=O)NC(=O)Nc3ccc(Cl)cc3)c(-c3ccccc3)oc12`, for which the TGI in experiment [1] was over 100 µM; in [2] it was 74.3 µM; in experiment [3], over 100 µM; in [4] it was over 100 µM; in experiment [5], over 100 µM; in experiment [6] it was over 100 µM. In addition, the TGI in experiment [7], in experiment [8], in [9], in [10], in experiment [11] and in experiment [12] was over 100 µM throughout. In addition, the TGI in experiment [13], in experiment [14], in experiment [15], in experiment [16], in experiment [17] and in experiment [18] was over 100 µM each time.
